{"source": "patent US11197865B2", "about": "“Applications for promethazine in preparing anti-liver cancer and/or colon cancer and/or lung cancer products” (SHANGHAI JIAO TONG UNIVERSITY, priority 2015, dated 2021)", "assay_type_in_all_cases": "cell-based", "key": {"LoVo colon cancer cells": {"tested_on": "LoVo colon cancer cells", "test": "CellTiter-Glo luminescent cell viability assay, LoVo colon cancer cells", "details": "Homo sapiens, 72 hours", "description": "(§1) In example 1, CELLTITER-GLO was used to test promethazine against liver cancer and/or colon cancer. n) HUH-7 cells and LoVo cells were handled as described above, and HUH-7 96-well cell culture plates and LoVo 96-well cell culture plates were obtained, respectively. The complete medium for LoVo cells was DMEM (a live product), Cat #11995081, with a cells/well density of 8000. 2. […] The final concentrations (μM) of the analyte drug in wells 2-10 in FIG. 1 are, in order: 100, 31.64557, 10.01442, 3.16912, 1.002886, 0.317369, 0.100433, 0.031783, 0.010058; B. CELLTITER-GLO Luminescent Cell Viability Assay System a) Before testing, the HUH-7 96-well drug screening plate and the LoVo 96-well drug screening plate described in 3 above were stabilized to room temperature for 20-30 minutes. c) 100 μl of CellTiter-Glo reagent (prepared as described in 1 above) was added to all drug screening plates and mixed evenly. d) It was thoroughly oscillated in a 96-well microplate oscillator for 2 minutes to allow the cells to undergo full lysis. e) It was stored away from light at room temperature for 15 minutes before carrying out luminescent signal detection to ensure signal stability. f) An EnSpire multi-function plate reader was used at 570 nm to read the luminescent signals. g) Data was processed and analyzed."}, "[1]": {"tested_on": "NCI-H661 large-cell lung cancer cells", "test": "CellTiter-Glo luminescent cell viability assay, NCI-H661 large-cell lung cancer cells", "details": "Homo sapiens, 72 hours"}, "[2]": {"tested_on": "NCI-H2141 lung cancer cells", "test": "CellTiter-Glo luminescent cell viability assay, NCI-H2141 lung cancer cells", "details": "72 hours"}, "[3]": {"tested_on": "SKOV-3 human ovarian cancer cells", "test": "CellTiter-Glo luminescent cell viability assay, SKOV-3 ovarian cancer cells", "details": "SK-OV-3, SKOV-3 cells, 72 hours"}, "HUH-7 liver cancer cells": {"tested_on": "HUH-7 liver cancer cells", "test": "CellTiter-Glo luminescent cell viability assay, HUH-7 liver cancer cells", "details": "Homo sapiens, 72 hours", "description": "as §1, with “for HUH-7” for “for LoVo”, “of 6000.” for “of 8000.”"}}, "data": [{"compound": "CC(CN1c2ccccc2Sc2ccccc21)N(C)C", "note": "(stereo not shown) [promethazine]", "values": [{"measurement": "IC50", "setting": "LoVo colon cancer cells", "result": 33.5, "unit": "µM"}, {"measurement": "IC50", "setting": "[1]", "result": "≥ 100", "unit": "µM"}, {"measurement": "EC50", "setting": "[2]; FIG. 4, lung cancer (NCI-H2141)", "result": 33.9, "unit": "µM"}, {"measurement": "IC50", "setting": "[2]; NCI-H2141 cells", "result": 34.6, "unit": "µM"}, {"measurement": "IC50", "setting": "[3]", "result": "≥ 100", "unit": "µM"}, {"measurement": "EC50", "setting": "HUH-7 liver cancer cells; FIG. 2, liver cancer (HUH-7)", "result": 42, "unit": "µM"}, {"measurement": "IC50", "setting": "HUH-7 liver cancer cells; HUH-7 cells", "result": 31.4, "unit": "µM"}]}]}
